Entries after “also recorded” stand apart in the source; their conditions may differ.
How the values were obtained:
Karpas-422 = assay: Cell viability assay (Cell Titer Glo, 72 hours); assay type: cell-based; conditions: Homo sapiens, Karpas-422, DLBCL GCB subtype, single agent
Experimental: (§1) In addition, the study further explored the mechanism of action of the combination of acalabrutinib and capivasertib using western blot analysis.
(§2) Cell viability was measured using Cell Titer Glo reagent and readouts were taken using a Tecan plate reader with a 100 ms integration time. Data analysis was carried out using GeneData software version 15. A growth inhibition value less than 1 μM (GI50<1 μM) indicates sensitivity.

SuDHL4 = assay: Cell viability assay (Cell Titer Glo, 72 hours); assay type: cell-based; conditions: Homo sapiens, SU-DHL-4, SuDHL4, DLBCL GCB subtype, single agent
Experimental: as §1, §2

OCI-LY10 = assay: Cell viability assay (Cell Titer Glo, 72 hours); assay type: cell-based; conditions: Homo sapiens, OCI-LY10, DLBCL ABC subtype, single agent
Experimental: as §1, §2

WSU-DLCL2 = assay: Cell viability assay (Cell Titer Glo, 72 hours); assay type: cell-based; conditions: Homo sapiens, WSUDLCL2, WSU-DLCL2, DLBCL GCB subtype, single agent
Experimental: as §1, §2

HLY1 = assay: Cell viability assay (Cell Titer Glo, 72 hours); assay type: cell-based; conditions: Homo sapiens, HLY1, DLBCL ABC subtype, single agent
Experimental: as §1, §2

WILL1 = assay: Cell viability assay (Cell Titer Glo, 72 hours); assay type: cell-based; conditions: WILL-1, WILL1, DLBCL Int subtype, single agent
Experimental: as §1, §2

U2932 = assay: Cell viability assay (Cell Titer Glo, 72 hours); assay type: cell-based; conditions: Homo sapiens, U2932, DLBCL ABC subtype, single agent
Experimental: as §1, §2

TMD8 = assay: Cell viability assay (Cell Titer Glo, 72 hours); assay type: cell-based; conditions: Homo sapiens, TMD8, DLBCL ABC subtype, single agent
Experimental: as §1, §2

OCI-LY19 = assay: Cell viability assay (Cell Titer Glo, 72 hours); assay type: cell-based; conditions: Homo sapiens, OCI-LY19, DLBCL GCB subtype, single agent
Experimental: as §1, §2

OCI-LY3 = assay: Cell viability assay (Cell Titer Glo, 72 hours); assay type: cell-based; conditions: Homo sapiens, OCI-LY3, DLBCL ABC subtype, single agent
Experimental: as §1, §2

SuDHL6 = assay: Cell viability assay (Cell Titer Glo, 72 hours); assay type: cell-based; conditions: Homo sapiens, SU-DHL-6, SuDHL6, DLBCL GCB subtype, single agent
Experimental: as §1, §2

[1] = Plasma pharmacokinetics in the TMD8 xenograft efficacy study; assay type: in vivo, mouse; conditions: TMD8 xenograft mice; oral; day 20; 1, 2, 4 and 8-hour time points
Experimental: (§3) TMD8 human ABC-DLBCL tumor cells (5×10^6/mouse) were implanted subcutaneously in female CB.17 SCID mice. […] Tumor length and width was measured by caliper and tumor volume was calculated using the formula (length×width^2)*π/6.

[2] = tested on: OCI-Ly10 human ABC DLBCL xenograft; assay: In vivo efficacy in subcutaneous OCI-Ly10 human ABC-DLBCL xenograft model; parameters: species or system mouse; conditions: SCID mice, oral BID, acalabrutinib 20 mg/kg; for TGI (tumor growth inhibition): capivasertib 130 mg/kg 4 days on/3 days off, after 25 days of treatment; for MAX AVG BODY WEIGHT LOSS: capivasertib 130 mg/kg, 25-day study
Experimental: OCI-ly10 human ABC-DLBCL tumor cells (5×10^6/mouse) were implanted subcutaneously in female CB.17 SCID mice. […] Tumor length and width was measured by caliper and tumor volume was calculated using the formula (length×width^2)*π/6.

OCI-LY10 cells = assay: Western blot analysis of phospho-proteins; assay type: cell-based, human; conditions: 2 or 24 hours; for phosphorylation of AKTS473: 100 nM acalabrutinib or both
Description: (§4) Cells were then lysed in SDS lysis buffer, centrifuged and protein concentrations estimated. Samples were loaded onto Bis-Tris Novex gels, transferred onto nitrocellulose membranes and probed for phospho-proteins of interest.

TMD8 cells = assay: Western blot analysis of phospho-proteins; assay type: cell-based, human; conditions: 2 or 24 hours; for phosphorylation of AKTS473: 100 nM acalabrutinib or both
Description: as §4

[3] = tested on: TMD8 human ABC DLBCL xenograft; assay: In vivo efficacy in subcutaneous TMD8 human ABC-DLBCL xenograft model; parameters: species or system mouse; conditions: SCID mice, oral BID, acalabrutinib 20 mg/kg; for TGI (tumor growth inhibition): capivasertib 130 mg/kg 4 days on/3 days off, after 24 days of treatment; for MAX AVG BODY WEIGHT LOSS: capivasertib 130 mg/kg, 24-day study
Experimental: as §3

SMILES | GI50 (Karpas-422) [nM] | GI50 (SuDHL4) [nM] | GI50 (OCI-LY10) [nM] | GI50 (WSU-DLCL2) [nM] | GI50 (HLY1) [nM] | GI50 (WILL1) [nM] | GI50 (U2932) [nM] | GI50 (TMD8) [nM] | GI50 (OCI-LY19) [nM] | GI50 (OCI-LY3) [nM] | GI50 (SuDHL6) [nM] | TGI (tumor growth inhibition) [2] [%] | MAX AVG BODY WEIGHT LOSS [2] [%] | phosphorylation of AKTS473 (OCI-LY10 cells; 1 μM capivasertib) | phosphorylation of AKTS473 (TMD8 cells; 1 μM capivasertib) | TGI (tumor growth inhibition) [3] [%] | MAX AVG BODY WEIGHT LOSS [3] [%] | other results
CC#CC(=O)N1CCC[C@H]1c1nc(-c2ccc(C(=O)Nc3ccccn3)cc2)c2c(N)nccn12 [acalabrutinib, 4-{8-amino-3-[(2S)-1-(but-2-ynoyl)pyrrolidin-2-yl]imidazo[1,5-a]pyrazin-1-yl}-N-(pyridin-2-yl)benzamide] | > 3000 | > 3000 | 22 | > 3000 | > 3000 | > 3000 | > 3000 | 25 | > 3000 | > 3000 | > 3000 | 74 | 2 | decreased | decreased | 81 | 5 | steady-state drug exposure levels (unbound plasma concentrations), single agent versus combination [1]: similar; also recorded: comparable; TGI (tumor growth inhibition) ([2]; listed as Acalabrutinib): 74%; phosphorylation of BTK (OCI-LY10 cells; 100 nM acalabrutinib): decrease; phosphorylation of BTK (TMD8 cells; 100 nM acalabrutinib): decrease; TGI (tumor growth inhibition) ([3]; listed as Acalabrutinib): 81%
NC1(C(=O)N[C@@H](CCO)c2ccc(Cl)cc2)CCN(c2ncnc3[nH]ccc23)CC1 [capivasertib, (S)-4-amino-N-(1-(4-chlorophenyl)-3-hydroxypropyl)-1-(7H-pyrrolo[2,3-d]pyrimidin-4-yl)piperidine-4-carboxamide] | 200 | 710 | > 3000 | 60 | > 3000 | > 3000 | > 3000 | > 3000 | > 3000 | > 3000 | 360 | 0 | 3 | increased | increased | 0 | 2 | TGI (tumor growth inhibition) ([2]; listed as Capivasertib): 0%; phosphorylation of the downstream substrates PRAS40, GSK3β, FOXO and S6 (OCI-LY10 cells; 1 μM capivasertib): decreased; phosphorylation of the downstream substrates PRAS40, GSK3β, FOXO and S6 (TMD8 cells; 1 μM capivasertib): decreased; TGI (tumor growth inhibition) ([3]; listed as Capivasertib): 0%

From patent US12691113B2 (AstraZeneca AB, priority 2019, dated 2026)
